Data from PMC12475274, “Harnessing indole scaffolds to identify small-molecule IRE1α inhibitors modulating XBP1 mRNA splicing” (Nature Communications, 2025).
Where “and” joins values, the source holds several entries; their conditions need not be identical. Identical values can stand only once. Like-named read-outs stand apart in the source and are kept apart here.

Experiments:
[1] = molecular target: T1, dephosphorylated IRE1α (547–977) (Homo sapiens, UniProt O75460); experiment: FRET-based IRE1α RNase activity assay, dephosphorylated IRE1α; format: biochemical; details: for IC50: FRET assay; for inhibition at 50 µM: read-out: IRE1α inhibition%
T1 construct: Human IRE1α kinase and RNase domain (residues 547–977) was subcloned into pLIB plasmid; His tag (with TEV cleavage site) (N, cleaved yes); made in house; host or cells: Sf9 insect cells, baculovirus (Bac-to-Bac)
Description: (§1) Human IRE1α kinase and RNase domain (residues 547–977) was subcloned into pLIB plasmid with a His tag and TEV cleavage site, and expressed using Bac-to-Bac expression system. The primers used are listed in Supplementary Table S3. The protein purification was performed following established procedures. Briefly, Sf9 cells were infected with baculovirus and incubated at 27 °C 110 rpm for 72 h. The cells were collected by centrifugation at 4000 × g for 15 min and the cell pellet was resuspended in lysis buffer (50 mM HEPES pH 7.5, 300 mM NaCl, 10% glycerol, 1 mM MgCl2, 1 mM TCEP, 5 mM imidazole), then supplemented with 1:10,000 benzonase (Sigma, E1014), 1 tablet/25 mL […]™ Protease Inhibitor Cocktail tablets (Sigma, S8830) and 1 mM PMSF before lysed by sonication at 4 °C. […] The protein elution was incubated with TEV protease to remove His tag at 4 °C overnight. Then the sample was diluted 1:6 in buffer (50 mM HEPES pH 7.5, 1 mM TCEP, 5% glycerol) and loaded onto a 5 mL pre-packaged Q HP anion exchange column (Cytiva, HiTrap Q HP) pre-equilibrated with QA buffer (50 mM HEPES pH 7.5, 50 mM NaCl, 1 mM TCEP, 5% glycerol). The unphosphorylated and phosphorylated protein was separated by eluting the protein with a very shallow gradient with 0-30% buffer QB (50 mM HEPES pH 7.5, 1 M NaCl, 1 mM TCEP, 5% glycerol) over 80 CV. Different peaks were collected separately and verified by LC-MS. The fully phosphorylated fraction was collected and further purified by size exclusion chromatography (Cytiva, HiLoad 16/600 Superdex 200 pg,) with SEC buffer (25 mM HEPES pH 7.5, 250 mM NaCl, 1 mM TCEP, 10% glycerol) and fractioned as monomeric peak. The rest protein fraction from the Q HP anion exchange column was incubated with Lambda protein phosphatase (New England BioLabs, P0753S) overnight at 4 °C, the dephosphorylation was confirmed by LC-MS. The unphosphorylated protein was further purified by size exclusion chromatography with the SEC buffer described above. The purified phosphorylated (p-IRE1α) and dephosphorylated (IRE1α) protein aliquots were stored at −80 °C for future usage.
The dual-labeled RNA substrate with a FAM at 5’ and the BHQ-1 at 3’ containing the XBP1 sequence (5′FAM-[…]-3′BHQ1) was purchased from Integrated DNA Technologies (IDT). The FRET-based IRE1α RNase activity assay was carried out in reaction buffer containing 20 mM HEPES pH 7.5, 50 mM KOAc, 1 mM MgOAc2, 1 mM DTT, 0.05% v/v TritonX-100, at a total reaction volume of 20 μL in a 384-well black plate (4514, Corning). For unphosphorylated IRE1α (IRE1α), a final concentration of 40 nM IRE1α protein and 100 nM RNA substrate was used. For phosphorylated IRE1 (p-IRE1α), a final concentration of 4 nM p-IRE1α protein and 200 nM RNA substrate was used. The indicated compound and IRE1α protein were incubated for 30 min at room temperature before the substrate was added to the reaction. The plate was then kinetically read over one hour at room temperature using a TECAN Spark plate reader. The measurement was carried out using the fluorescence top reading mode at the excitation wavelength of 485 nm and the emission wavelength of 535 nm with a 10 nm excitation and emission bandwidth. The linear part of the reaction curve was adopted and fitted with sample linear regression to obtain the slope, and the slope was adopted to reflect the reaction rate. The inhibition % was calculated by using the equation: inhibition% = 100 × (slope of DMSO control – slope of the sample)/(slope of DMSO control – slope of blank control), DMSO control: DMSO with protein and RNA substrate; Blank control: DMSO with RNA substrate. The IC50 values were calculated using the concentration-response model in GraphPad Prism 9. […]

p-IRE1α = molecular target: T2, p-IRE1α (Homo sapiens, UniProt O75460); experiment: Differential scanning fluorimetry (DSF), p-IRE1α; format: binding; details: individual replicate values
T2 construct: Human IRE1α kinase and RNase domain (residues 547–977) was subcloned into pLIB plasmid; His tag (with TEV cleavage site) (N, cleaved yes); made in house; host or cells: Sf9 insect cells, baculovirus (Bac-to-Bac)
Description: (§2) The DSF assay was performed in PBS buffer containing 2 mM DTT, in a total reaction volume of 20 µl with indicated compounds (final 1% DMSO) and the final concentration of 1 µM IRE1α protein and 5× SYPRO Orange fluorescent dye (5000× in DMSO, Sigma S5692). The melting curve was measured at a temperature range from 25 °C to 95 °C and in increments of 1 °C for 30 s using a Bio-Rad CFX96 Real-Time PCR detection system with the FRET scan mode. The melting temperature (Tm) was obtained by fitting the melting curve to Boltzmann sigmoidal in GraphPad Prism and the thermal shift (∆Tm) was calculated by using the equation: ∆Tm = Tm(compound) -Tm(DMSO).

[2] = molecular target: T3, phosphorylated IRE1α (p-IRE1α) (Homo sapiens, UniProt O75460); experiment: FRET-based IRE1α RNase activity assay, phosphorylated IRE1α; format: biochemical; details: for inhibition at 50 µM: read-out: p-IRE1α inhibition%
T3 construct: Human IRE1α kinase and RNase domain (residues 547–977) was subcloned into pLIB plasmid; His tag (with TEV cleavage site) (N, cleaved yes); made in house; host or cells: Sf9 insect cells, baculovirus (Bac-to-Bac)
Description: as §1
The dual-labeled RNA substrate with a FAM at 5’ and the BHQ-1 at 3’ containing the XBP1 sequence (5′FAM-[…]-3′BHQ1) was purchased from Integrated DNA Technologies (IDT). The FRET-based IRE1α RNase activity assay was carried out in reaction buffer containing 20 mM HEPES pH 7.5, 50 mM KOAc, 1 mM MgOAc2, 1 mM DTT, 0.05% v/v TritonX-100, at a total reaction volume of 20 μL in a 384-well black plate (4514, Corning). For unphosphorylated IRE1α (IRE1α), a final concentration of 40 nM IRE1α protein and 100 nM RNA substrate was used. For phosphorylated IRE1 (p-IRE1α), a final concentration of 4 nM p-IRE1α protein and 200 nM RNA substrate was used. The indicated compound and IRE1α protein were incubated for 30 min at room temperature before the substrate was added to the reaction. The plate was then kinetically read over one hour at room temperature using a TECAN Spark plate reader. The measurement was carried out using the fluorescence top reading mode at the excitation wavelength of 485 nm and the emission wavelength of 535 nm with a 10 nm excitation and emission bandwidth. The linear part of the reaction curve was adopted and fitted with sample linear regression to obtain the slope, and the slope was adopted to reflect the reaction rate. The inhibition % was calculated by using the equation: inhibition% = 100 × (slope of DMSO control – slope of the sample)/(slope of DMSO control – slope of blank control), DMSO control: DMSO with protein and RNA substrate; Blank control: DMSO with RNA substrate. The IC50 values were calculated using the concentration-response model in GraphPad Prism 9.

IRE1α = molecular target: T4, IRE1α (Homo sapiens, UniProt O75460); experiment: Differential scanning fluorimetry (DSF), IRE1α; format: binding; details: for IRE1 ∆Tm(°C): Supplementary Fig. 3c, replicate values
T4 construct: Human IRE1α kinase and RNase domain (residues 547–977) was subcloned into pLIB plasmid; His tag (with TEV cleavage site) (N, cleaved yes); made in house; host or cells: Sf9 insect cells, baculovirus (Bac-to-Bac)
Description: as §2

[3] = RNase activity, mean (± SEM), read-out: IRE1α IC50
[4] = source data, unit from Fig. 3 / sheet Fig. 2b, read-out: IRE1a IC50, individual replicates (n1-n4)
[5] = FRET assay, RNase activity, mean (± SEM), read-out: p-IRE1α IC50
[6] = FRET assay, source data, unit from Fig. 3, read-out: p-IRE1a IC50, individual replicates (n1-n4)
[7] = p-IRE1a, individual replicates (n1-n3), Supplementary Fig. 2b, 2c, read-out: IC50
[8] = FRET assay at 50 μM, mean (± SEM)
[9] = FRET assay at 50 μM, source data, 50 µM

T2 sequence (O75460 547-977): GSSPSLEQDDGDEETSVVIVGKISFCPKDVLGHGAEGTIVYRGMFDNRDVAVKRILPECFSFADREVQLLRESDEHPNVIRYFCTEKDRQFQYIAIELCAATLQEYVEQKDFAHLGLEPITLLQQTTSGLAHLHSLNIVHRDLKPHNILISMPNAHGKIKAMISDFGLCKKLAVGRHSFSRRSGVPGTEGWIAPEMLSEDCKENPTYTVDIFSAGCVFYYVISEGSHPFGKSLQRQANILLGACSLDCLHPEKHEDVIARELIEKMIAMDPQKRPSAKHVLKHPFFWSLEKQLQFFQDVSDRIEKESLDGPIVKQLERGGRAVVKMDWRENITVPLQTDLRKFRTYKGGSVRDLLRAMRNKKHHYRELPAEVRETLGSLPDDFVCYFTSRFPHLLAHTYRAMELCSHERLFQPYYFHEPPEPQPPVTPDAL
T4 sequence (O75460 547-977): as above
T1 sequence (O75460 547-977): as above
T3 sequence (O75460 547-977): as above

In the case of `COc1ccc2c(c1)c(CCC(=O)O)c(C)n2C(=O)c1cccs1` [IA03], the IC50 [1, 3] is reported as 100 nM, the IC50 [1, 4] is reported as 73.3 nM and 110 nM and 118 nM and the “p-IRE1a ∆Tm(°C)” value (p-IRE1α; compound 6.25 μM) is reported as 0.24 °C and 0.45 °C. The “p-IRE1a ∆Tm(°C)” value (p-IRE1α; compound 12.5 μM) was 0.39 °C and 0.62 °C, the “p-IRE1a ∆Tm(°C)” value (p-IRE1α; compound 25 μM) was 1.04 °C and 1.05 °C and the “p-IRE1a ∆Tm(°C)” value (p-IRE1α; compound 50 μM) was 1.49 °C and 1.54 °C. For the same compound, the IC50 [2, 5] was 120 nM, the IC50 [2, 6] was 176 nM and 68 nM and 105 nM and the IC50 [2, 7] was 176 nM and 68 nM and 105 nM. The “stabilization of IRE1α in DSF” value (IRE1α) was “concentration-dependently stabilized”, the “IRE1 ∆Tm(°C)” value (IRE1α; compound 6.25 μM) was 0.75 °C and 0.95 °C and the “IRE1 ∆Tm(°C)” value (IRE1α; compound 12.5 μM) was 1 °C and 0.99 °C. The “IRE1 ∆Tm(°C)” value (IRE1α; compound 25 μM) was 1.96 °C and 1.82 °C and the “IRE1 ∆Tm(°C)” value (IRE1α; compound 50 μM) was 2.84 °C and 2.57 °C.

With `COc1ccc2c(c1)c(CCC(=O)O)c(C)n2C(=O)c1cccc(C#N)c1` [IA30] the IC50 [1, 3] was 90 nM and 85 nM, the IC50 [1, 4] was 63.5 nM and 100 nM and 91.3 nM and the “p-IRE1a ∆Tm(°C)” value (p-IRE1α; compound 6.25 μM) was 0.49 °C and 0.43 °C. The “p-IRE1a ∆Tm(°C)” value (p-IRE1α; compound 12.5 μM) was 0.57 °C and 0.74 °C, the “p-IRE1a ∆Tm(°C)” value (p-IRE1α; compound 25 μM) was 1.03 °C and 1.24 °C and the “p-IRE1a ∆Tm(°C)” value (p-IRE1α; compound 50 μM) was 1.59 °C and 1.56 °C. For the same compound, the IC50 [2, 5] was 40 nM, the IC50 [2, 6] was 57 nM and 41 nM and 21 nM and the IC50 [2, 7] was 56.8 nM and 41.3 nM and 21.4 nM. For the same compound, the “stabilization of IRE1α in DSF” value (IRE1α) was “concentration-dependently stabilized”, the “IRE1 ∆Tm(°C)” value (IRE1α; compound 6.25 μM) was 0.71 °C and 0.59 °C and the “IRE1 ∆Tm(°C)” value (IRE1α; compound 12.5 μM) was 1.19 °C and 1.23 °C. The “IRE1 ∆Tm(°C)” value (IRE1α; compound 25 μM) was 1.84 °C and 1.88 °C and the “IRE1 ∆Tm(°C)” value (IRE1α; compound 50 μM) was 2.92 °C and 2.84 °C.

For `COc1ccc2c(c1)c(CCC(=O)O)c(C)n2C(=O)c1ccc2ccccc2c1` [IA034], the “IRE1 ∆Tm(°C)” value (IRE1α; compound 6.25 μM) was 0.1 °C and -0.04 °C, the “IRE1 ∆Tm(°C)” value (IRE1α; compound 12.5 μM) was 0.02 °C and -0.1 °C and the “IRE1 ∆Tm(°C)” value (IRE1α; compound 25 μM) was 0.25 °C and 0 °C. For the same compound, the “IRE1 ∆Tm(°C)” value (IRE1α; compound 50 μM) was -0.02 °C and 0 °C.

In the case of `COc1ccc2c(c1)c(CCCC(=O)O)c(C)n2C(=O)c1ccc(Cl)cc1` [cms02], the inhibition at 50 µM [1, 8] is reported as 40.3%, the “IRE1a inhibition(%), individual measurements” value [1, 9] is reported as 64.1986% and 50.8974% and 61.5831% and 7.967% and 17.0403% and the inhibition at 50 µM [2, 8] is reported as 42.5%. The “p-IRE1a Inhibiton%, individual measurements” value [2, 9] was 54.5805% and 55.2276% and 56.4075% and 61.6984% and 12.177% and 15.0468%.

With `COc1ccc2c(c1)c(CC(=O)OCC(=O)O)c(C)n2C(=O)c1ccc(Cl)cc1` [cms03] the inhibition at 50 µM [1, 8] was under 30% and the inhibition at 50 µM [2, 8] was under 30%.

`COC(=O)CCc1c(C)n(C(=O)c2ccc(Cl)cc2)c2ccc(OC)cc12` [cms04] gave an inhibition at 50 µM [1, 8] of under 30% and an inhibition at 50 µM [2, 8] of under 30%.

`CCOC(=O)Cc1c(C)n(C(=O)c2ccc(Cl)cc2)c2ccc(OC)cc12` [cms05] showed an inhibition at 50 µM [1, 8] of under 30% and an inhibition at 50 µM [2, 8] of under 30%.
